3 compounds from patent publication US20260297542A1, “HERBICIDE RESISTANT PLANTS” (SYNGENTA CROP PROTECTION AG, priority 2023, published 2026) can be followed below.

Molecules are shown by their SMILES. Positions count from the first letter of the chain named.

What all share (test): E. coli hemG growth inhibition by herbicide, AtPPO1 variant
Common to all, as to format: cell-based
Common to all, as to conditions: read-out: percentage growth inhibition

One assay concerns the target T1, AtPPO1 Q272H (Arabidopsis thaliana, UniProt P55826, Q272H).
T1 construct: expressed in transfected cells; host or cells: E. coli BL21(DE3) hemG (hemG replaced by CmR), pET24a plasmid
T1 sequence (P55826 35-537 Q272H): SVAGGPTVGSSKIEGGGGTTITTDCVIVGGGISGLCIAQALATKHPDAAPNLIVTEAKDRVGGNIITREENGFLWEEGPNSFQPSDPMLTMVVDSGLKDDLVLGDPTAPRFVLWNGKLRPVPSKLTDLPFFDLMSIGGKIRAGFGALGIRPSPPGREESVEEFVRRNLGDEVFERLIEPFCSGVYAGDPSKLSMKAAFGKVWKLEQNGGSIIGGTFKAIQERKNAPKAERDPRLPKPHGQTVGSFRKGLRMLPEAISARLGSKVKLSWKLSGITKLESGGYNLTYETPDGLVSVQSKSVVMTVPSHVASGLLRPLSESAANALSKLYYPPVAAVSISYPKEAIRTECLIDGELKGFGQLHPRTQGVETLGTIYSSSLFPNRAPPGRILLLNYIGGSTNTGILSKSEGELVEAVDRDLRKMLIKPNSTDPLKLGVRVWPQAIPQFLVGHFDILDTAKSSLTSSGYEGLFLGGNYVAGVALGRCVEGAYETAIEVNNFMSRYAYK
Put shortly: (§1)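 AtPPO1 variants from a site-saturation library, codon-optimised and T7-driven in pET24a, were expressed in E. coli BL21(DE3) lacking hemG (hemG replaced by CmR). Growth in Terrific broth with 0.1 mM IPTG plus 6.25 ppm herbicide 0 or E, 0.78 ppm herbicide B, or DMSO was read as OD600 after 24 h at 37° C; inhibition was calculated against the DMSO culture.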

The next assay concerns the target T2, AtPPO1 V127I (Arabidopsis thaliana, UniProt P55826, V127I).
T2 construct: expressed in transfected cells; host or cells: E. coli BL21(DE3) hemG (hemG replaced by CmR), pET24a plasmid
T2 sequence (P55826 35-537 V127I): T1 sequence (P55826 35-537 Q272H) with V93I, H238Q
The gist of the method:
as §1

The target in a further assay is T3, AtPPO1 Y219S (Arabidopsis thaliana, UniProt P55826, Y219S).
T3 construct: expressed in transfected cells; host or cells: E. coli BL21(DE3) hemG (hemG replaced by CmR), pET24a plasmid
T3 sequence (P55826 35-537 Y219S): T1 sequence (P55826 35-537 Q272H) with Y185S, H238Q
Put shortly: as §1

A further assay has as its target T4, AtPPO1 Y362F (Arabidopsis thaliana, UniProt P55826, Y362F).
T4 construct: expressed in transfected cells; host or cells: E. coli BL21(DE3) hemG (pET24a, T7 promoter)
T4 sequence (P55826 35-537 Y362F): T1 sequence (P55826 35-537 Q272H) with H238Q, Y328F
Put shortly: as §1

As for `C#CCN1C(=O)C(F)(F)Oc2cc(F)c(-n3c(=O)n(C)c(=S)n(C)c3=O)cc21` [Herbicide B, trifludimoxazin], the inhibition (as a rule, how much of the control response was suppressed) at 0.78 ppm on AtPPO1 Q272H was found to be 27%; at AtPPO1 V127I it was 28%; at AtPPO1 Y219S, 28%; on AtPPO1 Y362F, 34%.
With `CCOC(=O)[C@]1(C)CC(c2cc(-n3c(=O)n(C)c(=S)n(C)c3=O)c(F)cc2Cl)=NO1` [Herbicide D, ethyl (5S)-3-[2-chloro-5-(3,5-dimethyl-2,6-dioxo-4-thioxo-1,3,5-triazinan-1-yl)-4-fluoro-phenyl]-5-methyl-4H-isoxazole-5-carboxylate], the inhibition at 6.25 ppm on AtPPO1 Q272H stood at 28%; on AtPPO1 V127I it was 23%; on AtPPO1 Y219S, 33%; at AtPPO1 Y362F it was 13%.
The like results for `CC(C)N(C)S(=O)(=O)NC(=O)c1cc(-n2c(=O)cc(C(F)(F)F)n(C)c2=O)c(F)cc1Cl` [Herbicide E, saflufenacil] were, in that order, 64%, 69%, 49% and 43%.
